Earlier results on two substances are cited in PMC8480965 (The Journal of General Physiology, 2021).

Data set [1] relates to Kv2.1. The following applies: independent binding to each voltage sensor; ref Lee et al., 2003.
Data set [2] concerns Kv2.1. Particulars: sphingomyelin converted to ceramide-1-phosphate; ref Milescu et al., 2009.
Data set [3] has as its system Kv2.1. Particulars: ref Tilley et al., 2019.

Regarding Hanatoxin, the “inhibition of total gating charge movement per voltage sensor bound” value in data set [1] is recorded as roughly 25%.

As for “guangxitoxin-1E (EGECGGFWWKCGSGKPACCPKYVCSPKWGLCNFPMP; UniProt P84835 1-36, looked up) [GxTX]”, in data set [2], the “enhancement of GxTX affinity for Kv2.1 by sphingomyelinase D” value is recorded as “fourfold”. Moreover, in data set [3] (Kv2.1 in saturating GxTX), the “V1/2 of gating charge–voltage (QV) relation” value is on record as 47 ± 1 mV and the “z of gating charge–voltage (QV) relation” value was 1.6 ± 0.1 e0. The “stabilization of voltage sensor in resting conformation with GxTX bound” value in data set [3] (estimated previously) is recorded as 5,400 fold. In addition, in data set [3], the “deactivation rate of voltage sensors bound by GxTX” value is recorded as “faster deactivation rate” and the “mode of action on Kv2.1” value was “partial inverse agonist of Kv2.1”.
